The record followed here is US20200369629A1, “BENZAMIDE COMPOUNDS AND THEIR USE AS HERBICIDES” (BASF SE, priority 2017, published 2020).

Common to all, as to format: in vivo
In assay [1] the test system is AMARE (Amaranthus retroflexus). Briefly: Greenhouse post-emergence test, test series 1, AMARE. To be noted: application rate 62.5 g/ha, scale 0 to 100 (100 = complete destruction, 0 = no damage). The source says: (§1) The seeds of the test plants were sown separately for each species. For the pre-emergence treatment, the active ingredients, which had been suspended or emulsified in water, were applied directly after sowing by means of finely distributing nozzles. The containers were irrigated gently to promote germination and growth and subsequently covered with transparent plastic hoods until the plants had rooted. This cover caused uniform germination of the test plants, unless this had been impaired by the active ingredients. For the post-emergence treatment, the test plants were first grown to a height of 3 to 15 cm, depending on the plant habit, and only then treated with the active ingredients which had been suspended or emulsified in water. For this purpose, the test plants were either sown directly and grown in the same containers, or they were first grown separately as seedlings and transplanted into the test containers a few days prior to treatment. Depending on the species, the plants were kept at 10-25° C. or 20-25° C., respectively. The test period extended over 2 to 4 weeks. During this time, the plants were tended, and their response to the individual treatments was evaluated. Evaluation was carried out using a scale from 0 to 100. 100 means no emergence of the plants, or complete destruction of at least the aerial moieties, and 0 means no damage, or normal course of growth. A good herbicidal activity is given at values of at least 70 and a very good herbicidal activity is given at values of at least 85. Test Series 1: At an application rate of 62.5 g/ha the following compounds were tested in post-emergence tests against: AMARE (Amaranthus retroflexus)

The test system of assay [2] is ECHCG (Echinocloa crus-galli). Briefly: Greenhouse post-emergence test, test series 1, ECHCG. The following applies: Echinochloa crus-galli, application rate 62.5 g/ha, scale 0 to 100 (100 = complete destruction, 0 = no damage).
Excerpt: as §1, with “ECHCG (Echinocloa crus-galli)” for “AMARE (Amaranthus retroflexus)”

The next assay deals with SETFA (Setaria faberi). Briefly: Greenhouse pre-emergence test, test series 2, SETFA. The following applies: application rate 125 g/ha, scale 0 to 100 (100 = no emergence, 0 = no damage).
Excerpt: as §1, with “Series 2:” for “Series 1:”, “of 125” for “of 62.5”, “in pre-emergence” for “in post-emergence”, “tests against SETFA (Setaria faberi)” for “tests against: AMARE (Amaranthus retroflexus)”

Turning to `Cc1c(NC(=O)N(C)CC(F)(F)F)c(Cl)cc(F)c1C(=O)Nc1nnnn1C` [Example 12], the pest or weed control at 62.5 g/ha in assay [1] and in assay [2] was more than 85% throughout.
Regarding `CCN(CC(F)(F)F)C(=O)Nc1c(Cl)cc(F)c(C(=O)Nc2nnnn2C)c1Cl` [Example 8], the pest or weed control at 62.5 g/ha in assay [1] and in assay [2] was more than 85% each time. Also, the pest or weed control (as a rule, how far the test organism was held down) at 125 g/ha in the assay with SETFA (Setaria faberi) is more than 85%.
For `Cc1c(NC(=O)N(CC(F)(F)F)C(C)C)c(Cl)cc(F)c1C(=O)Nc1nnnn1C` [Example 13], the pest or weed control at 62.5 g/ha in assay [1] and in assay [2] was more than 85% throughout. Further, the pest or weed control at 125 g/ha with SETFA (Setaria faberi) is more than 85%.
As to `CN(CC(F)(F)F)C(=O)Nc1c(C(F)(F)F)cc(F)c(C(=O)Nc2nnnn2C)c1Cl` [Example 10], the pest or weed control at 62.5 g/ha in assay [1] and in assay [2] was more than 85% each time. Moreover, the pest or weed control at 125 g/ha in the assay on SETFA (Setaria faberi) was more than 85%.
In the case of `CCN(CC(F)(F)F)C(=O)Nc1c(Cl)cc(F)c(C(=O)Nc2nnnn2C)c1C` [Example 18], the pest or weed control at 62.5 g/ha in assay [1] and in assay [2] was more than 85% throughout. This molecule also returned a pest or weed control at 125 g/ha with SETFA (Setaria faberi) of more than 85%.
On to `Cc1c(NC(=O)N(CC(F)(F)F)CC(F)(F)F)c(Cl)cc(F)c1C(=O)Nc1nnnn1C` [Example 19], for which the pest or weed control at 62.5 g/ha in assay [1] and in assay [2] was more than 85% throughout.
In the case of `Cc1c(NC(=O)N(CC(F)(F)F)CC(F)(F)F)c(Br)cc(F)c1C(=O)Nc1nnnn1C` [Example 3], the pest or weed control at 62.5 g/ha in assay [1] and in assay [2] was more than 85% throughout. Also, the pest or weed control at 125 g/ha in the assay with SETFA (Setaria faberi) was more than 85%.
As to `CC(C)N(CC(F)(F)F)C(=O)Nc1c(C(F)(F)F)cc(F)c(C(=O)Nc2nnnn2C)c1Cl` [Example 14], the pest or weed control at 62.5 g/ha in assay [1] and in assay [2] was more than 85% each time. Also, the pest or weed control at 125 g/ha with SETFA (Setaria faberi) is more than 85%.
For `Cc1c(NC(=O)N(CC(F)(F)F)C2CC2)c(Br)cc(F)c1C(=O)Nc1nnnn1C` [Example 6], the pest or weed control at 62.5 g/ha in assay [1] and in assay [2] was more than 85% in each case. Also, the pest or weed control at 125 g/ha in the assay with SETFA (Setaria faberi) is more than 85%.
`CN(CC(F)(F)F)C(=O)Nc1c(Cl)cc(F)c(C(=O)Nc2nnnn2C)c1Cl` [Example 9, 2,4-dichloro-6-fluoro-N-(1-methyltetrazol-5-yl)-3-[[methyl(2,2,2-trifluoroethyl)carbamoyl]amino]benzamide]: the pest or weed control at 62.5 g/ha in assay [1] and in assay [2] was more than 85% in each case.
With `Cc1c(NC(=O)N(CC(F)(F)F)C2CC2)c(Cl)cc(F)c1C(=O)Nc1nnnn1C` [Example 21], the pest or weed control at 62.5 g/ha in assay [1] and in assay [2] was more than 85% each time. Further, the pest or weed control at 125 g/ha in the assay with SETFA (Setaria faberi) is more than 85%.
`Cn1nnnc1NC(=O)c1c(F)cc(Cl)c(NC(=O)N(CC(F)(F)F)C2CC2)c1Cl` [Example 7]: the pest or weed control at 62.5 g/ha in assay [1] and in assay [2] was more than 85% each time. Further, the pest or weed control at 125 g/ha with SETFA (Setaria faberi) was more than 85%.
For the molecule `CC(C)N(CC(F)(F)F)C(=O)Nc1c(Cl)cc(F)c(C(=O)Nc2nnnn2C)c1Cl` [Example 20], the pest or weed control at 62.5 g/ha in assay [1] and in assay [2] was more than 85% each time.
As for `Cc1c(NC(=O)N(C)CC(F)(F)F)c(Br)cc(F)c1C(=O)Nc1nnnn1C` [Example 1, 4-bromo-6-fluoro-2-methyl-N-(1-methyltetrazol-5-yl)-3-[[methyl(2,2,2-trifluoroethyl)carbamoyl]amino]benzamide], the pest or weed control at 62.5 g/ha in assay [1] and in assay [2] was more than 85% in each case. For the same molecule, in the assay on SETFA (Setaria faberi), the pest or weed control at 125 g/ha was more than 85%.
For the molecule `Cn1nnnc1NC(=O)c1c(F)cc(C(F)(F)F)c(NC(=O)N(CC(F)(F)F)CC(F)(F)F)c1Cl` [Example 22], the pest or weed control at 62.5 g/ha in assay [1] and in assay [2] was more than 85% each time. Besides, the pest or weed control at 125 g/ha in the assay with SETFA (Setaria faberi) was more than 85%.
For the molecule `CCN(CC(F)(F)F)C(=O)Nc1c(Br)cc(F)c(C(=O)Nc2nnnn2C)c1C` [Example 2, 4-bromo-6-fluoro-2-methyl-N-(1-methyltetrazol-5-yl)-3-[[ethyl(2,2,2-trifluoroethyl)carbamoyl]amino]benzamide], the pest or weed control at 62.5 g/ha in assay [1] and in assay [2] was more than 85% in each case. In the assay on SETFA (Setaria faberi), the pest or weed control at 125 g/ha was more than 85%.
